Legend:
[1] = test system: mast cells (rat basophilic leukemia cell line, RBL-2H3); experiment: Expression of inflammation-related cytokines in mast cells (RT-PCR); assay type: cell-based; conditions: RBL-2H3, DNP-IgE sensitized, DNP-HSA 2 hours, vs control (NC)
Procedure: In order to confirm the effect of inhibiting allergic inflammatory response and improving atopic dermatitis by the pentapeptide of the present invention, the expression pattern of inflammation-related cytokines was confirmed using mast cells (rat basophilic leukemia cell line, RBL-2H3).
Specifically, RBL-2H3 cells were inoculated into a 12-well plate at a density of 5×10^5 cells/well, and then cultured overnight at a 37° C., 5% CO2 incubator. Then, the cells were sensitized by adding DNP-IgE to a complete medium. After 3 hours, it was washed 3 times with DPBS and then PIPES buffer was added thereto. In addition, an immune response was induced by pretreatment with the pentapeptide of the present invention synthesized in Example 1 for 30 minutes and then with DNP-HSA for 2 hours. At this time, 20 μg/mL of ketotifen was used as a positive control.
(§1) After recovering the cells and then isolating RNA, cDNA was synthesized from the isolated RNA using a cDNA synthesis kit (Intron, Korea). A polymerase chain reaction was performed using the synthesized cDNA, PCR premix (Intron, Korea) and IL-3, IL-4, and TNF-α primers, and the amplified PCR product was electrophoresed on an agarose gel to confirm a DNA band. The primer sequences used at this time are as shown in [Table 1].

[2] = High temperature stability at 121° C. (HPLC); assay type: physicochemical; conditions: 1000 ppm in sterile distilled water, 15 and 30 minutes
Procedure: The peptide of the present invention was dissolved in sterile distilled water at a concentration of 1000 ppm, heated at 121° C. for 15 minutes and 30 minutes, followed by HPLC analysis.

[3] = test system: mast cells (rat basophilic leukemia cell line, RBL-2H3); experiment: Degranulation (β-hexosaminidase release) in DNP-IgE/DNP-HSA stimulated mast cells; assay type: cell-based; conditions: 10 μM or 100 μM, 30 min pretreatment, DNP-IgE sensitized, DNP-HSA 3 hours, vs control (NC)
Procedure: In order to confirm the effect of inhibiting allergic inflammatory response and improving atopic dermatitis by the pentapeptide of the present invention, the degree of degranulation was confirmed using mast cells (rat basophilic leukemia cell line, RBL-2H3).
Specifically, RBL-2H3 cells were inoculated into a 12-well plate at a density of 5×10^5 cells/well, and then cultured overnight at a 37° C., 5% CO2 incubator. Then, the cells were sensitized by adding DNP-IgE to a complete medium. After 3 hours, it was washed 3 times with DPBS and then PIPES buffer was added thereto. In addition, an immune response was induced by pretreatment with the pentapeptide of the present invention synthesized in Example 1 for 30 minutes and then with DNP-HSA for 3 hours. After that, 25 μL of the supernatant was recovered, 25 μL of the substrate solution (5 mM p-nitrophenyl-N-acetyl-β-D-glucosaminide dissolved in 0.2 M sodium citrate buffer, pH 4.5) was added thereto, and then incubated at 37° C. for 90 minutes to react. After the reaction, 200 μL of stop solution (0.1 M Na2CO3/NaHCO3, pH 10.0) was added to each well to stop the enzymatic reaction, and absorbance was measured at 405 nm using a microplate reader. β-hexosamidase secreted from the supernatant was quantified according to Equation 1 below after adding 0.5% Triton X-100 solution to the cells. […]

mouse splenocytes = experiment: Expression of inflammation-related cytokines in splenocytes (RT-PCR); assay type: cell-based; conditions: TNF-α induced, 30 minutes, vs control (NC)
Procedure: In order to confirm the effect of inhibiting allergic inflammatory response and improving atopic dermatitis by the pentapeptide of the present invention, the expression pattern of inflammation-related cytokines was confirmed using mouse splenocytes.
Specifically, after separating mouse splenocytes, the cells were inoculated into a 24-well plate at a density of 1×10^7 cells/well, and then cultured overnight at a 37° C., 5% CO2 incubator. After changing the medium to a serum-free medium, 4 hours later, the pentapeptide of the present invention and TNF-α were treated and cultured for 30 minutes. At this time, 20 μg/mL of ketotifen was used as a positive control.
as §1, with “synthesized” for “synthesized from the isolated RNA”, “TNF-α, IL-113” for “IL-3, IL-4,”, “COX-2” for “TNF-α”, “2].” for “1].”

[4] = High temperature stability during long-term storage at 45° C. (HPLC); assay type: physicochemical; conditions: 1000 ppm in sterile distilled water, 7 to 75 days
Procedure: The peptide of the present invention consisting of the amino acid sequence of SEQ ID NO: 1 was dissolved in sterile distilled water at a concentration of 1000 ppm, stored at 45° C. for 7 days, 14 days, 28 days, 60 days and 75 days, followed by HPLC analysis.

Which “expression of IL-3” value [1] does the source give for “KFLIK (Pentapeptide) [pentapeptide of the present invention]” here?
The value was “significantly reduced”.

What about the “expression of IL-4” value [1] of the same substance?
Its value is “significantly reduced”.

What about the “expression of TNF-α” value [1] of the same substance?
Its value is “significantly reduced”.

And the “high-temperature stability at maximum heating temperature” value [2]?
The value was “maintained stability for 30 minutes”.

And the “release amount of β-hexosamidase” value [3]?
Its value is “decreased in a concentration-dependent manner”.

What about the “expression of COX-2” value (mouse splenocytes) of the same substance?
The value was “significantly reduced”.

And the “expression of IL-1β” value (mouse splenocytes)?
Its value is “significantly reduced”.

What about the “expression of TNF-α” value (mouse splenocytes) of the same substance?
The value was “significantly reduced”.

And the “high-temperature stability during long-term storage” value [4]?
Its value is “maintained stability for 75 days”.

From patent US20230321181A1, “COMPOSITION FOR PREVENTION, IMPROVEMENT OR TREATMENT OF ALLERGIC DISEASE OR ITCHING COMPRISING PENTAPEPTIDE AS ACTIVE INGREDIENT” (CAREGEN CO, LTD., priority 2020, published 2023)
